Reference: PubChem BioAssay AID1259408 (Genetic Toxicology Data Bank (GENE-TOX), 2018)
The source made the active and inactive calls. The rule behind the calls is not given here.

Tested on: GENE-TOX genotoxicity assays, various organisms and cells
Assay: GENE-TOX mutagenicity studies
Conditions: for call: Assay Type: In vivo carcinogenicity studies
[1] = Species/Cell Type: Chinese hamster lung (V79) cells, Assay Type: Forward gene mutation at the HPRT or ouabain locus, Assay Code: V79+, Evaluation Type: Evaluation A (Pre-1980)
[2] = Species/Cell Type: Saccharomyces cerevisiae, Assay Type: Mitotic recombination or gene conversion, Assay Code: YEC+, Evaluation Type: Evaluation A (Pre-1980)
[3] = Species/Cell Type: Saccharomyces cerevisiae, Assay Type: Mitotic recombination or gene conversion, Assay Code: YEH+, Evaluation Type: Evaluation A (Pre-1980)
[4] = Species/Cell Type: Salmonella typhimurium (one or more of the five standard strains: TA98, TA100, TA1535, TA1537, and TA1538), Assay Type: Histidine reverse gene mutation, Ames assay, Assay Code: SAL+, Evaluation Type: Evaluation A (Pre-1980)
[5] = Species/Cell Type: Drosophila melanogaster, Assay Type: Sex-linked recessive lethal gene mutation, Assay Code: SRL-, Evaluation Type: Evaluation A (Pre-1980)
[6] = Species/Cell Type: Salmonella typhimurium (one or more of the five standard strains: TA98, TA100, TA1535, TA1537, and TA1538), Assay Type: Histidine reverse gene mutation, Ames assay, Assay Code: SAL-, Evaluation Type: Evaluation A (Pre-1980)
[7] = Species/Cell Type: Nonhuman, Assay Type: Sister-chromatid exchange (SCE) in vitro, Assay Code: SC2+, Evaluation Type: Evaluation B (Post-1980)
[8] = Species/Cell Type: Bacillus subtilis (H17 vs M45), Assay Type: Rec-assay, spot test, DNA effects (bacterial DNA repair), Assay Code: REW+, Evaluation Type: Evaluation A (Pre-1980)
[9] = Species/Cell Type: Human lymphocytes, Assay Type: Sister-chromatid exchange (SCE) in vitro, Assay Code: SCL+D, Dose Response: With dose response, Evaluation Type: Evaluation B (Post-1980)
[10] = Species/Cell Type: Human, Assay Type: Sister-chromatid exchange (SCE) in vitro, Assay Code: SC1+D, Dose Response: With dose response, Evaluation Type: Evaluation B (Post-1980)
[11] = Species/Cell Type: Nonhuman, Assay Code: CCGT, Evaluation Type: Evaluation A (Pre-1980)
[12] = Species/Cell Type: Human lymphocytes or leukocytes, Assay Type: Chromosome aberrations in vitro, Assay Code: CY7+, Evaluation Type: Evaluation A (Pre-1980)

With `CCN(CCCl)CCCNc1c2ccc(Cl)cc2nc2ccc(OC)cc12` the mutagenic call [1] was “active; positive”, the mutagenic call (Species/Cell Type: Chinese hamster ovary (CHO) cells, Assay Type: Forward gene mutation at the HPRT locus, Assay Code: CHO+D, Dose Response: With dose response, Evaluation Type: Evaluation A (Pre-1980)) was “active; positive” and the mutagenic call (Species/Cell Type: Drosophila melanogaster, Assay Type: Sex-linked recessive lethal gene mutation, Assay Code: SRL+, Evaluation Type: Evaluation A (Pre-1980)) was “active; positive”. For the same compound, the mutagenic call (Species/Cell Type: Neurospora crassa, Assay Type: Forward gene mutation, Assay Code: NEF+, Evaluation Type: Evaluation A (Pre-1980)) was “active; positive”, the mutagenic call (Species/Cell Type: Neurospora crassa, Assay Type: Reverse gene mutation, Assay Code: NER+, Evaluation Type: Evaluation A (Pre-1980)) was “active; positive” and the call (Species/Cell Type: Nonhuman, Assay Code: CCG+L, Evaluation Type: Evaluation A (Pre-1980)) was “active; positive”. The mutagenic call (Species/Cell Type: Rodents, Sex: Male, Assay Type: Dominant lethal test, Assay Code: DLTT, Evaluation Type: Evaluation A (Pre-1980)) was “no conclusion”, the mutagenic call (Species/Cell Type: Saccharomyces cerevisiae, Assay Type: Forward gene mutation, Assay Code: YEF+, Evaluation Type: Evaluation A (Pre-1980)) was “active; positive” and the mutagenic call [2] was “active; positive”. For the same compound, the mutagenic call [3] was “active; positive”, the mutagenic call (Species/Cell Type: Saccharomyces cerevisiae, Assay Type: Reverse gene mutation, Assay Code: YER+, Evaluation Type: Evaluation A (Pre-1980)) was “active; positive” and the mutagenic call [4] was “active; positive”. The mutagenic call (Species/Cell Type: Vicia faba, Assay Type: Chromosome aberrations, Assay Code: VIC+D, Dose Response: With dose response, Evaluation Type: Evaluation A (Pre-1980)) was “active; positive”.

With `Nc1nc(N)nc(-c2ccc([N+](=O)[O-])o2)n1` the mutagenic call [4] was “active; positive”.

In the case of `CCOc1ccc2c(c1)C(C)=CC(C)(C)N2`, the mutagenic call [5] was “inactive; negative” and the mutagenic call [6] was “inactive; negative”.

For `CCc1cccc(CC)c1N(COC)C(=O)CCl`, the mutagenic call (Species/Cell Type: Saccharomyces cerevisiae, Assay Type: Mitotic recombination or gene conversion, Assay Code: YEC+*, Activation: With metabolic activation, Evaluation Type: Evaluation A (Pre-1980)) was “active; positive”.

With `CCOC(=O)CCCCC(=O)OCC` the mutagenic call (Species/Cell Type: Rodents, Sex: Male, Assay Type: Dominant lethal test, Assay Code: DLT+, Evaluation Type: Evaluation A (Pre-1980)) was “active; positive”.

For `COP(=S)(Oc1cc(Cl)c(Br)cc1Cl)c1ccccc1` (stereo not given), the mutagenic call [7] was “active; positive”.

In the case of `ONC1CCCCC1`, the mutagenic call (Species/Cell Type: Drosophila melanogaster, Assay Type: Sex-linked recessive lethal gene mutation, Assay Code: SRLT, Evaluation Type: Evaluation A (Pre-1980)) was “no conclusion”, the mutagenic call (Species/Cell Type: Drosophila melanogaster, Sex: Male, Assay Type: Heritable translocation test, chromosome aberrations, Assay Code: DHTT, Evaluation Type: Evaluation A (Pre-1980)) was “no conclusion” and the mutagenic call (Species/Cell Type: Human lymphocytes or leukocytes, Assay Type: Chromosome aberrations in vitro, Assay Code: CY7-, Evaluation Type: Evaluation A (Pre-1980)) was “inactive; negative”.

With `O=C1C=C2C(=CCOC2O)O1` (stereo not given) the mutagenic call [8] was “active; positive”, the mutagenic call [9] was “active; positive” and the mutagenic call [10] was “active; positive”. For the same compound, the mutagenic call (Species/Cell Type: Nonhuman, Assay Type: Chromosome aberrations in vitro, Assay Code: CY&+, Evaluation Type: Evaluation A (Pre-1980)) was “active; positive”, the call [11] was “no conclusion” and the mutagenic call (Species/Cell Type: Nonhuman, Assay Type: Sister-chromatid exchange (SCE) in vitro, Assay Code: SC2-, Evaluation Type: Evaluation B (Post-1980)) was “inactive; negative”. For the same compound, the mutagenic call (Species/Cell Type: Rodents, Sex: Male, Assay Type: Dominant lethal test, Assay Code: DLT-, Evaluation Type: Evaluation A (Pre-1980)) was “inactive; negative”, the mutagenic call (Species/Cell Type: Saccharomyces cerevisiae, Assay Type: Mitotic recombination or gene conversion, Assay Code: YEH+/-*, Activation: With metabolic activation, Evaluation Type: Evaluation A (Pre-1980)) was “inactive; positive without activation, negative with activation” and the mutagenic call [6] was “inactive; negative”.

`NC(N)=O` was tested, and the mutagenic call (Species/Cell Type: Allium cepa, Assay Type: Chromosome aberrations, Assay Code: ALC+D, Dose Response: With dose response, Evaluation Type: Evaluation A (Pre-1980)) was “active; positive”, the mutagenic call (Species/Cell Type: Escherichia coli polA (W3119 vs P3478), Assay Type: Rec-assay, DNA effects (bacterial DNA repair), Assay Code: RE1T, Evaluation Type: Evaluation A (Pre-1980)) was “no conclusion” and the mutagenic call (Species/Cell Type: Glycine max (soybean), Assay Type: Gene mutation, Assay Code: GLM-, Evaluation Type: Evaluation A (Pre-1980)) was “inactive; negative”. For the same compound, the mutagenic call [12] was “active; positive”, the mutagenic call (Species/Cell Type: Mouse, Sex: Male, Assay Type: Sperm morphology, Assay Code: SPI-, Evaluation Type: Evaluation A (Pre-1980)) was “inactive; negative” and the mutagenic call (Species/Cell Type: Plant, Assay Type: Micronucleus test, chromosome aberrations, Assay Code: MNP+, Evaluation Type: Evaluation A (Pre-1980)) was “active; positive”.

With `C1=CC2c3ccccc3OC2O1` (stereo not given) the mutagenic call (Species/Cell Type: Salmonella typhimurium (one or more of the five standard strains: TA98, TA100, TA1535, TA1537, and TA1538), Assay Type: Histidine reverse gene mutation, Ames assay, Assay Code: SAL+*, Activation: With metabolic activation, Evaluation Type: Evaluation A (Pre-1980)) was “active; positive”.

With `CNC(N)=O` the mutagenic call (Species/Cell Type: Human lymphocytes, Assay Type: Sister-chromatid exchange (SCE) in vitro, Assay Code: SCLT, Evaluation Type: Evaluation B (Post-1980)) was “no conclusion”, the mutagenic call (Species/Cell Type: Human, Assay Type: Sister-chromatid exchange (SCE) in vitro, Assay Code: SC1T, Evaluation Type: Evaluation B (Post-1980)) was “no conclusion” and the mutagenic call (Species/Cell Type: Salmonella typhimurium, Assay Type: Forward and reverse gene mutation, host-mediated assay, Assay Code: HMA+, Evaluation Type: Evaluation A (Pre-1980)) was “active; positive”.

For `O=NN(CCCl)C(=O)NC1CCCCC1`, the mutagenic call [1] was “active; positive”, the mutagenic call (Species/Cell Type: Chinese hamster ovary (CHO) cells, Assay Type: Forward gene mutation at the HPRT locus, Assay Code: CHO+, Evaluation Type: Evaluation B (Post-1980)) was “active; positive” and the mutagenic call (Species/Cell Type: Human lymphocytes, Assay Type: Sister-chromatid exchange (SCE) in vivo, Assay Code: SCY+, Evaluation Type: Evaluation B (Post-1980)) was “active; positive”. For the same compound, the call (Species/Cell Type: Nonhuman, Assay Code: CCG+, Evaluation Type: Evaluation A (Pre-1980)) was “active; positive”, the mutagenic call [7] was “active; positive” and the mutagenic call (Species/Cell Type: Rodents, Sex: Male, Assay Type: Dominant lethal test, Assay Code: DLT+D, Dose Response: With dose response, Evaluation Type: Evaluation A (Pre-1980)) was “active; positive”.

With `Clc1ccc(Cl)c(Cl)c1` the mutagenic call (Species/Cell Type: Mammalian polychromatic erythrocytes, Assay Type: Micronucleus test, chromosome aberrations, Assay Code: MNT+, Evaluation Type: Evaluation B (Post-1980)) was “active; positive”.

In the case of `O=C(O)COc1ccc(Cl)cc1Cl`, the mutagenic call (Species/Cell Type: Allium cepa, Assay Type: Chromosome aberrations, Assay Code: ALC+, Evaluation Type: Evaluation A (Pre-1980)) was “active; positive”, the mutagenic call [8] was “active; positive” and the mutagenic call [1] was “active; positive”. For the same compound, the mutagenic call (Species/Cell Type: Drosophila melanogaster, Assay Type: Aneuploidy, sex chromosome gain, chromosome aberrations, Assay Code: DAG-M-F, Evaluation Type: Evaluation A (Pre-1980)) was “inactive; negative”, the mutagenic call (Species/Cell Type: Drosophila melanogaster, Assay Type: Aneuploidy, whole sex chromosome loss, chromosome aberrations, Assay Code: DAC-M-F, Evaluation Type: Evaluation A (Pre-1980)) was “inactive; negative” and the mutagenic call [5] was “inactive; negative”. For the same compound, the mutagenic call (Species/Cell Type: Escherichia coli WP2 UVRA, Assay Type: Tryptophan reverse gene mutation, Assay Code: WPU-*, Activation: With metabolic activation, Evaluation Type: Evaluation A (Pre-1980)) was “inactive; negative”, the mutagenic call (Species/Cell Type: Escherichia coli polA (W3119 vs P3478), Assay Type: Rec-assay, DNA effects (bacterial DNA repair), Assay Code: RE1+, Evaluation Type: Evaluation A (Pre-1980)) was “active; positive” and the mutagenic call (Species/Cell Type: Human diploid fibroblasts, Assay Type: Unscheduled DNA synthesis (UDS) in vitro, DNA effects, Assay Code: UDH-, Evaluation Type: Evaluation A (Pre-1980)) was “inactive; negative”. The mutagenic call [12] was “active; positive”, the mutagenic call [9] was “active; positive” and the mutagenic call [10] was “active; positive”. For the same compound, the mutagenic call (Species/Cell Type: Mammalian polychromatic erythrocytes, Assay Type: Micronucleus test, chromosome aberrations, Assay Code: MNTT, Evaluation Type: Evaluation A (Pre-1980)) was “no conclusion”, the mutagenic call (Species/Cell Type: Nonhuman bone marrow, Assay Type: Chromosome aberrations, in vivo, Assay Code: CY#+, Evaluation Type: Evaluation A (Pre-1980)) was “active; positive” and the call [11] was “no conclusion”. The mutagenic call [2] was “active; positive”, the mutagenic call [3] was “active; positive” and the mutagenic call (Species/Cell Type: Saccharomyces cerevisiae, Assay Type: Mitotic recombination or gene conversion, Assay Code: YEH-, Evaluation Type: Evaluation A (Pre-1980)) was “inactive; negative”. The mutagenic call [6] was “inactive; negative”, the mutagenic call (Species/Cell Type: Salmonella typhimurium (one or more of the five standard strains: TA98, TA100, TA1535, TA1537, and TA1538), Assay Type: Histidine reverse gene mutation, Ames assay, Assay Code: SALT, Evaluation Type: Evaluation A (Pre-1980)) was “no conclusion” and the mutagenic call (Species/Cell Type: Salmonella typhimurium, Saccharomyces cerevisiae, Assay Type: Forward and reverse gene mutation, mitotic recombination and gene conversion, DNA effects, host-mediated assay, Assay Code: HM3-, Evaluation Type: Evaluation A (Pre-1980)) was “inactive; negative”. For the same compound, the mutagenic call (Species/Cell Type: Vicia faba, Assay Type: Chromosome aberrations, Assay Code: VIC+, Evaluation Type: Evaluation A (Pre-1980)) was “active; positive”.
